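The compound was tested at five concentrations on cells cultured in 96-well plates, with a 48-hour exposure period. GI50: concentration for 50% inhibition of growth. TGI: total growth inhibition.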
Assays:
Assay in all cases: DTP human tumour cell line panel, 48 h
[1] = system: HCT-116 colon
[2] = system: A498 renal
[3] = system: TK-10 renal
[4] = system: SF-295 CNS
[5] = system: RXF 393 renal
[6] = system: CCRF-CEM leukemia
[7] = system: MDA-MB-231 breast
[8] = system: MCF7 breast
[9] = system: BT-549 breast
[10] = system: MOLT-4 leukemia
[11] = system: DU-145 prostate
[12] = system: SR leukemia
[13] = system: NCI-H226 lung
[14] = system: LOX IMVI melanoma
[15] = system: 786-0 renal
[16] = system: SNB-19 CNS
[17] = system: SNB-75 CNS
[18] = system: T-47D breast
[19] = system: ACHN renal
[20] = system: KM12 colon
[21] = system: HS 578T breast
[22] = system: HCC-2998 colon
[23] = system: UACC-257 melanoma
[24] = system: NCI-H460 lung
[25] = system: RPMI-8226 leukemia
[26] = system: SW-620 colon
[27] = system: OVCAR-4 ovarian
[28] = system: U251 CNS
[29] = system: UO-31 renal
[30] = system: CAKI-1 renal
[31] = system: SF-268 CNS
[32] = system: A549 NSCLC
[33] = system: IGROV1 ovarian
[34] = system: HOP-92 NSCLC
[35] = system: OVCAR-5 ovarian
[36] = system: SN12C renal
[37] = system: NCI/ADR-RES ovarian
[38] = system: MALME-3M melanoma
[39] = system: NCI-H23 lung
[40] = system: SK-MEL-28 melanoma
[41] = system: HT29 colon
[42] = system: SK-OV-3 ovarian
[43] = system: HL-60(TB) leukemia
[44] = system: MDA-MB-435
[45] = system: PC-3 prostate
[46] = system: K-562 leukemia
[47] = system: SF-539 CNS
[48] = system: SK-MEL-5 melanoma
[49] = system: UACC-62 melanoma
[50] = system: EKVX NSCLC
[51] = system: M14 melanoma
[52] = system: COLO 205 colon
[53] = system: HOP-62 NSCLC
[54] = system: NCI-H522 lung
[55] = system: HCT-15 colon
[56] = system: OVCAR-8 ovarian

With C#C[C@]1(O)CC[C@H]2[C@@H]3CC=C4c5sc(NCc6ccccc6)nc5CC[C@]4(C)[C@H]3CC[C@@]21C the GI50 [1] was 3.37 µM, the TGI [1] was 11.5 µM and the GI50 [2] was 1720 nM. It also gave a TGI [2] of 4.24 µM, a GI50 [3] of 5.48 µM and a TGI [3] of 18.5 µM. It also gave a GI50 [4] of 1940 nM, a TGI [4] of 4.08 µM and a GI50 [5] of 1230 nM. The TGI [5] was 3.17 µM, the GI50 [6] was 2940 nM and the TGI [6] was 9.49 µM. The GI50 [7] was 2640 nM, the TGI [7] was 7.07 µM and the GI50 [8] was 3.31 µM. For the same compound, the TGI [8] was 10 µM, the GI50 [9] was 2820 nM and the TGI [9] was 7.27 µM. It also gave a GI50 [10] of 2660 nM, a TGI [10] of 8.69 µM and a GI50 [11] of 7.54 µM. It also gave a TGI [11] of 40.5 µM, a GI50 [12] of 3.16 µM and a TGI [12] of 29.6 µM. For the same compound, the GI50 [13] was 11.3 µM, the TGI [13] was 37.1 µM and the GI50 [14] was 2190 nM. For the same compound, the TGI [14] was 4.93 µM, the GI50 [15] was 1730 nM and the TGI [15] was 3.47 µM. The GI50 [16] was 4.01 µM, the TGI [16] was 18 µM and the GI50 [17] was 1890 nM. The GI50 [18] was 2760 nM, the TGI [18] was 16.6 µM and the GI50 [19] was 3.92 µM. The TGI [19] was 15.9 µM, the GI50 [20] was 3.18 µM and the TGI [20] was 10.8 µM. For the same compound, the GI50 [21] was 2020 nM, the TGI [21] was 6.42 µM and the GI50 [22] was 4.05 µM. It also gave a TGI [22] of 14.1 µM, a GI50 [23] of 1820 nM and a TGI [23] of 3.72 µM. It also gave a GI50 [24] of 4.66 µM, a TGI [24] of 16.6 µM and a GI50 [25] of 1650 nM. The TGI [25] was 4.53 µM, the GI50 [26] was 2220 nM and the TGI [26] was 4.68 µM. It also gave a GI50 [27] of 8.48 µM, a TGI [27] of 32.9 µM and a GI50 [28] of 1800 nM. For the same compound, the TGI [28] was 5.8 µM, the GI50 [29] was 2210 nM and the TGI [29] was 5.41 µM. It also gave a GI50 [30] of 2590 nM, a TGI [30] of 8.04 µM and a GI50 [31] of 3.85 µM. For the same compound, the TGI [31] was 16.4 µM, the GI50 [32] was 3.48 µM and the TGI [32] was 13.1 µM. The GI50 [33] was 5.83 µM, the TGI [33] was 23.3 µM and the GI50 [34] was 1560 nM. The TGI [34] was 7.34 µM, the GI50 [35] was 4.55 µM and the TGI [35] was 17.6 µM. It also gave a GI50 [36] of 3.52 µM, a TGI [36] of 16.7 µM and a GI50 [37] of 3.87 µM. The TGI [37] was 43.9 µM, the GI50 [38] was 2140 nM and the TGI [38] was 5.38 µM. The GI50 [39] was 4.4 µM, the TGI [39] was 20.8 µM and the GI50 [40] was 2310 nM. It also gave a TGI [40] of 7.2 µM, a GI50 [41] of 1680 nM and a TGI [41] of 3.54 µM. For the same compound, the GI50 [42] was 2080 nM, the TGI [42] was 4.41 µM and the GI50 [43] was 3.01 µM. It also gave a TGI [43] of 9.19 µM, a GI50 [44] of 3.73 µM and a TGI [44] of 18.7 µM. The GI50 [45] was 2290 nM, the TGI [45] was 6.77 µM and the GI50 [46] was 3.23 µM. For the same compound, the TGI [46] was greater than 100 µM, the GI50 [47] was 1400 nM and the TGI [47] was 3.18 µM. The GI50 [48] was 2910 nM, the TGI [48] was 8.8 µM and the GI50 [49] was 1970 nM. The TGI [49] was 4.49 µM, the GI50 [50] was 4.16 µM and the TGI [50] was 16.3 µM. The GI50 [51] was 2940 nM, the TGI [51] was 10.1 µM and the GI50 [52] was 1920 nM. It also gave a TGI [52] of 3.62 µM, a GI50 [53] of 2050 nM and a TGI [53] of 4.94 µM. For the same compound, the GI50 [54] was 2620 nM, the TGI [54] was 8.35 µM and the GI50 [55] was 1700 nM. The TGI [55] was 4.15 µM, the GI50 [56] was 3.78 µM and the TGI [56] was 14.4 µM.

Reference: PubChem BioAssay (NCI)
